In patent publication US4513001A, “β-Adrenergic 1-[1-benzimidazolyl]-N-[2-(4-hydroxy-3-methoxy-phenyl)-2-hydroxy-ethyl]- 3-amino butane and salts and hydrates thereof” (priority 1982, dated 1985):
Like-named read-outs stand apart in the source and are kept apart here.

Tests used:
rat uterus preparation = test: Uterus relaxing activity in vitro; conditions: Rattus norvegicus, 7 preparations, read-out: CE50 (effective concentration 50, inhibiting by 50% the control contraction)
Source text: This activity was investigated on a rat uterus preparation, put into estrus by cutaneous injection of oestradiol benzoate. The uterine horns were kept alive in a RINGER-LOCKE solution, modified by GADDUM and VOGT.
Their activity is expressed by the value of the molar CE50 (effective concentration 50, inhibiting by 50% the control contraction induced by the contracting agent).
Each CE50 indicated below was obtained from the results of 7 preparations.

histamine bronchospasm [1] = test: Bronchodilator activity in vivo, anesthetized dog, intraduodenal (intratracheal pressure, histamine bronchospasm)
Description: 1.2.2. In the anesthesized dog (recording of the intratracheal pressure)
A bronchospasm was caused by intravenous injection and histamine. The bronchodilator activity was shown by partial or total inhibition of this spasm.
The products studied were administered intraduodenally and the histamine injected then at various times to follow the effect of the treatment.
The results borne in the table below are the averages of the values obtained in 3 animals for each product.

[2] = system: heart rate and mean aortic pressure; test: Heart rate and mean aortic pressure of the anesthetised dog, intraduodenal; type: in vivo; conditions: intraduodenal
Description: 3.1.1. Activity on the heart rate and on the mean aortic pressure of the anesthetisied dog
The activity of the compound A and of Salbutamol was studied on 2 batches of 3 dogs per product: one in spontaneous respiration, the other in artificial respiration; the two substances were administered intraduodenally at 3 doses: 0.008-0.025 and 0.08 mg/kg.

[3] = system: isolated right atrium preparation of the guinea pig; test: Activity on the heart rate in vitro, isolated right atrium
Description: This action was studied on an isolated right atrium preparation of the guinea pig kept alive in a RINGER solution. The effect of cumulative doses on the heart rate was recorded. The results below are the averages of 6 preparations of the compound A, of 4 for Salbutamol

[4] = system: isolated trachea preparation of the guinea pig; test: Relaxant activity on isolated tracheal muscle in vitro; conditions: 6 preparations
Description: This activity was studied on an isolated trachea preparation of the guinea pig (chain of tracheal rings, according to CASTILLO and BEER. Journ. Pharmacol. Exp. Ther. 1947 90 104-109), kept alive in a KREBS solution. The effect of cumulative doses on the pressure of the preparation was recorded.
The activity of the substance was expressed by the value of the molar CD50 (decontracting concentration 50=concentration giving 50% of maximum relaxation), of which the negative log. is the value pD2, and by the intrinsic activity corresponding to maximum effect.
These values were determined in parallel for the compound A and Salbutamol, on 6 preparations for each.

histamine bronchospasm [5] = test: Bronchodilator activity in vivo, anesthetized guinea pig, intravenous (inhibition of histamine bronchospasm, KONZETT); conditions: i.v.
Description: (§1) 1.2.1 In the anesthesized guinea pig (method of KONZETT. Arch. Exp. Pathol. Pharmakol. 1940 195 71-74)
(§2) A bronchospasm was caused by intravenous histamine injection. The bronchodilator activity was shown by partial or total inhibition of this spasm.
The product studied was administered intravenously or intraduodenaly and histamine injected then at different times to follow the delay in appearance and the duration of the inhibiting effect of the treatment. […]

histamine bronchospasm [6] = test: Bronchodilator activity in vivo, anesthetized guinea pig, intraduodenal (inhibition of histamine bronchospasm, KONZETT)
Description: as §1, §2
The product studied was administered intravenously or intraduodenaly and histamine injected then at different times to follow the delay in appearance and the duration of the inhibiting effect of the treatment.
The results below are the averages of the values obtained in 10 animals.

guinea pig trachea = test: β-stimulant specificity: guinea pig trachea before and after propranolol; conditions: for EC50: Cavia porcellus, 6 preparations
Source text: respiratory (guinea pig trachea, in vitro)
cardiovascular (heart rate of the dog, in vivo) by the antagonistic effect of a β-blocking product.

CC(C)(C)NCC(O)c1ccc(O)c(CO)c1 (stereo not drawn) [Salbutamol, reference compound]
EC50 (rat uterus preparation; contracting agent acetylcholine): 5 nM
EC50 (rat uterus preparation; contracting agent serotonine): 8.3 nM
% inhibition in time (histamine bronchospasm [1]; 0.025 mg base/kg, 5 min): 21%
% inhibition in time (histamine bronchospasm [1]; 0.025 mg base/kg, 20 min): 65%
% inhibition in time (histamine bronchospasm [1]; 0.025 mg base/kg, 35 min): 63%
% inhibition in time (histamine bronchospasm [1]; 0.025 mg base/kg, 60 min): 61%
% inhibition in time (histamine bronchospasm [1]; 0.025 mg base/kg, 90 min): 65%
% inhibition in time (histamine bronchospasm [1]; 0.08 mg base/kg, 5 min): 8%
% inhibition in time (histamine bronchospasm [1]; 0.08 mg base/kg, 20 min): 50%
% inhibition in time (histamine bronchospasm [1]; 0.08 mg base/kg, 35 min): 56%
% inhibition in time (histamine bronchospasm [1]; 0.08 mg base/kg, 60 min): 55%
% inhibition in time (histamine bronchospasm [1]; 0.08 mg base/kg, 90 min): 52%
Heart rate, maximum cumulative effect ([2]; artificial respiration, 15 min after 0.025 mg/kg): +41 cpm
Average aortic pressure, maximum cumulative effect ([2]; artificial respiration, 90 min after 0.08 mg/kg): -36 mmHg
Heart rate, maximum cumulative effect ([2]; spontaneous respiration, 20 min after 0.08 mg/kg): +26 cpm
Average aortic pressure, maximum cumulative effect ([2]; spontaneous respiration, 1 h after 0.08 mg/kg): -40 mmHg
Heart rate, increase ([3]; 1 × 10^-4 mol): +110 beats per min.
Heart rate, maximum ([3]; 1 × 10^-4 mol, basal 202 (Salbutamol)): 312 beats per min.
Heart rate, increase ([3]; 1 × 10^-5 mol (maxi for Salbutamol)): +115 beats per min.
Heart rate, maximum ([3]; 1 × 10^-5 mol, basal 209 (Compound A), 202 (Salbutamol)): 317 beats per min.
Heart rate, increase ([3]; 1 × 10^-6 mol (maxi for Compound A)): +106 beats per min.
Heart rate, maximum ([3]; 1 × 10^-6 mol, basal 209 (Compound A), 202 (Salbutamol)): 308 beats per min.
Heart rate, increase ([3]; 1 × 10^-7 mol): +90 beats per min.
Heart rate, maximum ([3]; 1 × 10^-7 mol, basal 209 (Compound A), 202 (Salbutamol)): 292 beats per min.
Heart rate, increase ([3]; 1 × 10^-8 mol): +49 beats per min.
Heart rate, maximum ([3]; 1 × 10^-8 mol, basal 202 (Salbutamol)): 251 beats per min.
Maximum response (decontraction) [4]: 358 mg
Emax ([4]; Cavia porcellus, Salbutamol 1.00, read-out: Intrinsic activity): 100%
EC50 ([4]; Cavia porcellus, read-out: CD50 (decontracting concentration 50, concentration giving 50% of maximum relaxation)): 15 nM
EC50 ([4]; Cavia porcellus, negative log of molar CD50, read-out: pD2 (converted)): 15.1 nM
% inhibition in time (histamine bronchospasm [5]; 0.08 μg base/kg, 1 min): 8%
% inhibition in time (histamine bronchospasm [5]; 0.08 μg base/kg, 5 min): 2%
% inhibition in time (histamine bronchospasm [5]; 0.08 μg base/kg, 10 min): 0%
% inhibition in time (histamine bronchospasm [5]; 0.08 μg base/kg, 15 min): 1%
% inhibition in time (histamine bronchospasm [5]; 0.25 μg base/kg, 1 min): 25%
% inhibition in time (histamine bronchospasm [5]; 0.25 μg base/kg, 5 min): 6%
% inhibition in time (histamine bronchospasm [5]; 0.25 μg base/kg, 10 min): 2%
% inhibition in time (histamine bronchospasm [5]; 0.25 μg base/kg, 15 min): 2%
% inhibition in time (histamine bronchospasm [5]; 0.8 μg base/kg, 1 min): 54%
% inhibition in time (histamine bronchospasm [5]; 0.8 μg base/kg, 5 min): 8%
% inhibition in time (histamine bronchospasm [5]; 0.8 μg base/kg, 10 min): 7%
% inhibition in time (histamine bronchospasm [5]; 0.8 μg base/kg, 15 min): 2%
% inhibition in time (histamine bronchospasm [5]; 2.5 μg base/kg, 1 min): 75%
% inhibition in time (histamine bronchospasm [5]; 2.5 μg base/kg, 5 min): 13%
% inhibition in time (histamine bronchospasm [5]; 2.5 μg base/kg, 10 min): 8%
% inhibition in time (histamine bronchospasm [5]; 2.5 μg base/kg, 15 min): 4%
% inhibition in time (histamine bronchospasm [5]; 8 μg base/kg, 1 min): 91%
% inhibition in time (histamine bronchospasm [5]; 8 μg base/kg, 5 min): 35%
% inhibition in time (histamine bronchospasm [5]; 8 μg base/kg, 10 min): 13%
% inhibition in time (histamine bronchospasm [5]; 8 μg base/kg, 15 min): 8%
% inhibition in time (histamine bronchospasm [5]; 25 μg base/kg, 1 min): 97%
% inhibition in time (histamine bronchospasm [5]; 25 μg base/kg, 5 min): 78%
% inhibition in time (histamine bronchospasm [5]; 25 μg base/kg, 10 min): 34%
% inhibition in time (histamine bronchospasm [5]; 25 μg base/kg, 15 min): 22%
% inhibition in time (histamine bronchospasm [5]; 83 μg base/kg, 1 min): 94%
% inhibition in time (histamine bronchospasm [5]; 83 μg base/kg, 5 min): 81%
% inhibition in time (histamine bronchospasm [5]; 83 μg base/kg, 10 min): 60%
% inhibition in time (histamine bronchospasm [5]; 83 μg base/kg, 15 min): 55%
% inhibition in time (histamine bronchospasm [5]; 83 μg base/kg, 30 min): 50%
% inhibition in time (histamine bronchospasm [5]; 83 μg base/kg, 45 min (n = 9)): 30%
% inhibition in time (histamine bronchospasm [5]; 83 μg base/kg, 60 min (n = 9)): 17%
Dose to obtain a high activity (histamine bronchospasm [6]): 8 mg/kg
% inhibition in time (histamine bronchospasm [6]; 0.8 mg base/kg, 1 min): 4%
% inhibition in time (histamine bronchospasm [6]; 0.8 mg base/kg, 5 min): 18%
% inhibition in time (histamine bronchospasm [6]; 0.8 mg base/kg, 15 min): 16%
% inhibition in time (histamine bronchospasm [6]; 0.8 mg base/kg, 30 min): 16%
% inhibition in time (histamine bronchospasm [6]; 0.8 mg base/kg, 45 min): 13%
% inhibition in time (histamine bronchospasm [6]; 0.8 mg base/kg, 60 min): 13%
% inhibition in time (histamine bronchospasm [6]; 2.5 mg base/kg, 1 min): 2%
% inhibition in time (histamine bronchospasm [6]; 2.5 mg base/kg, 5 min): 14%
% inhibition in time (histamine bronchospasm [6]; 2.5 mg base/kg, 15 min): 32%
% inhibition in time (histamine bronchospasm [6]; 2.5 mg base/kg, 30 min): 34%
% inhibition in time (histamine bronchospasm [6]; 2.5 mg base/kg, 45 min): 29%
% inhibition in time (histamine bronchospasm [6]; 2.5 mg base/kg, 60 min): 23%
% inhibition in time (histamine bronchospasm [6]; 2.5 mg base/kg, 90 min): 15%
% inhibition in time (histamine bronchospasm [6]; 2.5 mg base/kg, 120 min): 10%
% inhibition in time (histamine bronchospasm [6]; 8 mg base/kg, 1 min): 31%
% inhibition in time (histamine bronchospasm [6]; 8 mg base/kg, 5 min): 64%
% inhibition in time (histamine bronchospasm [6]; 8 mg base/kg, 15 min): 76%
% inhibition in time (histamine bronchospasm [6]; 8 mg base/kg, 30 min): 72%
% inhibition in time (histamine bronchospasm [6]; 8 mg base/kg, 45 min): 65%
% inhibition in time (histamine bronchospasm [6]; 8 mg base/kg, 60 min): 58%
% inhibition in time (histamine bronchospasm [6]; 8 mg base/kg, 90 min): 52%
% inhibition in time (histamine bronchospasm [6]; 8 mg base/kg, 120 min (n = 9 compound A, n = 8 Salbutamol)): 37%
EC50 (guinea pig trachea; read-out: CD50 before propranolol): 11 nM
EC50 (guinea pig trachea; propranolol 1.7×10^-8 mol, read-out: CD50 after propranolol): 38 nM
Ratio of CD50 (guinea pig trachea; after / before propranolol): 3.5
